These results are taken from patent publication US11123355B2, “Antiviral benzyl-amine phosphodiamide compounds” (Merck Sharp & Dohme Corp., priority 2016, dated 2021).

Like-named read-outs stand apart in the source and are kept apart here.

Series [1] is described as follows: Prodrug Stability Assay in Bio-Relevant Media (FaSSIF with Pancreatin). The series is classed as in vitro ADME. As to conditions: 0.5 mg/mL Pancreatin in FaSSIF, 37° C.; HPLC peak area of prodrug at 5 h divided by that at 0 h. The procedure:
Prodrug Stability Assay in Bio-Relevant Media
The following assay was employed to evaluate the stability of the prodrugs in simulated gastrointestinal tract conditions. Preparation of fasted state simulated intestinal fluid (FaSSIF) using Phares SIF Powder was carried out according to protocols from Phare Drug Delivery AG (Baselland, Switzerland). For sample preparation, 10 μL stock solutions (10 mM) of prodrug substance in DMSO was added to 990 μL of 0.5 mg/mL Pancreatin solution (Fisher CAS #8049-47-6) in FaSSIF. Two samples were prepared for each compound. If the sample was a clear solution, it was directly analyzed by HPLC. If the sample was not clear, the sample was diluted with 100% MeCN, maintained at 37° C. and observed 5 h later. If the sample was clear, HPLC analysis was directly performed. If the sample was still not clear, the sample was diluted with 100% ACN and assayed by HPLC. All the samples were vortexed for 3 min and observed before injection. For the diluted samples, the area is multiplied by a dilution factor when the data is analyzed. The analysis was carried out with an Agilent 1100 series HPLC with autosampler. The column was a Poroshell 120 EC-C18, 4.6×50 mm, 2.7 μm. The flow rate was 1.8 mL/min, and the injection volume was 5 or 10 μL. UV detection was in the range 210-400 nm. The mobile phase consisted of solvent A (water plus 10 mM tetrabutylammonium bromide) and solvent B (acetonitrile) with a gradient of: 90% solvent A at 0 min, changing to 95% solvent B over 6 min, maintaining for 1.5 min, then reverting to 90% solvent A over 1.6 min. The HPLC peak area of the prodrug at 5 h was divided by the HPLC peak area of the prodrug at 0 h, to generate the % claimed parent ratio, which is summarized in Table 2 for gastrointestinal (GI) Tract stability.

Another series relates to HIV-1 (H9/IIB strain). The experiment in a line: Multiple Round HIV-1 Infection Assay (Viking Assay) in MT4-GFP cells. The series is classed as cell-based. Particulars: inhibition of reproductive ratio R0. In a few lines: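 MT-4 cells with tat/rev-dependent GFP reporter infected overnight with virus at MOI ~0.01, then incubated in RPMI with 10% or 50% normal human serum with 10-point 3-fold dilutions (typically 8.4 μM–0.42 nM final). Green cells counted at ~48 and ~72 h to give R0; IC50 from 4-parameter fit of R0 inhibition.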

Where [2] appears, read: MT4-GFP cells infected with HIV-1, 10% normal human serum, read-out: Viking, IC50 (10% NHS).
Where [3] appears, read: MT4-GFP cells infected with HIV-1, 50% normal human serum, read-out: Viking, IC50 (50% NHS).
Where [4] appears, read: Human immunodeficiency virus 1, MT4-GFP cells infected with HIV-1, 10% normal human serum, read-out: Viking, IC50 (10% NHS).
The mark [5] stands for this setting: Human immunodeficiency virus 1, MT4-GFP cells infected with HIV-1, 50% normal human serum, read-out: Viking, IC50 (50% NHS).

Usually IC50 stands for the point on the concentration scale where inhibition reaches its midpoint.

Turning to “propyl 2-(((R)-((((R)-1-(6-amino-9H-purin- 9-yl)propan-2-yl)oxy)methyl)(((R)-2,2,2- trifluoro-1-(p- tolyl)ethyl)amino)phosphoryl)amino)-2- methylpropanoate and propyl 2-(((S)-((((R)-1-(6-amino-9H-purin- 9-yl)propan-2-yl)oxy)methyl)(((R)-2,2,2- trifluoro-1-(p- tolyl)ethyl)amino)phosphoryl)amino)-2- methylpropanoate [Example 26A]”, the “GI Tract stability (%)” value in series [1] worked out at 75.3%. Also, the figures for the IC50 in the series on HIV-1 (H9/IIB strain) (setting [2]) and in the series on HIV-1 (H9/IIB strain) (setting [3]) were 4.7 nM and 45 nM, respectively.

As for `CCCOC(=O)C(C)(C)NP(=O)(CO[C@H](C)Cn1cnc2c(N)ncnc21)N[C@H](c1ccc(OC(F)(F)F)cc1)C(F)(F)F` (stereo partly drawn) [Example 4A], the “GI Tract stability (%)” value in series [1] is reported as 95.8%. In addition, the IC50 worked out at 3.5 nM in the series on HIV-1 (H9/IIB strain) (setting [2]) and 29 nM in the series on HIV-1 (H9/IIB strain) (setting [3]).

For the molecule `CC(C)OC(=O)C(C)(C)NP(=O)(CO[C@H](C)Cn1cnc2c(N)ncnc21)N[C@H](C)c1ccc(OC(F)(F)F)cc1` (stereo partly drawn) [Example 34B, isopropyl 2-(((R)-((((R)-1-(6-amino-9H-purin-9-yl)propan-2-yl)oxy)methyl)(((R)-1-(4-(trifluoromethoxy)phenyl)ethyl)amino)phos-phoryl)amino)-2-methylpropanoate and isopropyl 2-(((S)-((((R)-1-(6-amino-9H-purin-9-yl)propan-2-yl)oxy)methyl)(((R)-1-(4-(trifluoromethoxy)phenyl)ethyl)amino)phos-phoryl)amino)-2-methylpropanoate], the “GI Tract stability (%)” value in series [1] was 67.4%. Besides, the 50% inhibitory concentration (IC50) is 1.5 nM in the series with HIV-1 (H9/IIB strain) (setting [2]) and 7.9 nM in the series on HIV-1 (H9/IIB strain) (setting [3]).

Turning to “isopropyl 2-(((R)-((((R)-1-(6-amino-9H- purin-9-yl)propan-2-yl)oxy)methyl)((2-(4- chlorophenyl)propan-2- yl)amino)phosphoryl)amino)-2- methylpropanoate and isopropyl 2-(((S)-((((R)-1-(6-amino-9H- purin-9-yl)propan-2-yl)oxy)methyl)((2-(4- chlorophenyl)propan-2- yl)amino)phosphoroyl)amino)-2- methylpropanoate [Example 36A]”, in series [1], the “GI Tract stability (%)” value was 20.2%. Also, the 50% inhibitory concentration (IC50) in the series with HIV-1 (H9/IIB strain) (setting [2]) worked out at 3.2 nM; with HIV-1 (H9/IIB strain) (setting [3]), 37 nM.

Consider `CCCOC(=O)C(C)(C)NP(=O)(CO[C@H](C)Cn1cnc2c(N)ncnc21)N[C@H](C)c1ccc(Cl)cc1` (single isomer, unassigned) [Example 1B], for which the “GI Tract stability (%)” value in series [1] worked out at 98.7%. For the same molecule, the IC50 with HIV-1 (H9/IIB strain) (setting [4]) turned out to be 4.7 nM; in the series on HIV-1 (H9/IIB strain) (setting [5]) it was 36 nM.

In the case of `CCCOC(=O)C(C)(C)N[P@](=O)(CO[C@H](C)Cn1cnc2c(N)ncnc21)N(C)[C@H](C)c1ccc(OC(F)(F)F)cc1` [Example 33B, propyl 2-(((R)-((((R)-1-(6-amino-9H-purin-9-yl)propan-2-yl)oxy)methyl)(methyl((R)-1-(4-(trifluoromethoxy)phenyl)ethyl)amino)phos-phoryl)amino)-2-methylpropanoate and propyl 2-(((S)-((((R)-1-(6-amino-9H-purin-9-yl)propan-2-yl)oxy)methyl)(methyl((R)-1-(4-(trifluoromethoxy)phenyl)ethyl)amino)phos-phoryl)amino)-2-methylpropanoate], the “GI Tract stability (%)” value in series [1] stood at 97.2%. Moreover, the concentration for half-maximal inhibition (IC50) stood at 2.2 nM in the series on HIV-1 (H9/IIB strain) (setting [2]) and 7.1 nM in the series on HIV-1 (H9/IIB strain) (setting [3]).

For the molecule `CCCOC(=O)C(C)(C)N[P@@](=O)(CO[C@H](C)Cn1cnc2c(N)ncnc21)N[C@H](C)c1ccc(Cl)cc1C` [Example 29B, propyl 2-(((R)-((((R)-1-(6-amino-9H-purin-9-yl)propan-2-yl)oxy)methyl)(((R)-1-(4-chloro-2-methylphenyl)ethyl)amino)phosphoryl)ami-no)-2-methylpropanoate and propyl 2-(((S)-((((R)-1-(6-amino-9H-purin-9-yl)propan-2-yl)oxy)methyl)(((R)-1-(4-chloro-2-methyphenyl)ethyl)amino)phosphoryl)ami-no)-2-methylpropanoate], the “GI Tract stability (%)” value in series [1] is listed as 12.1%. Further, the concentration for half-maximal inhibition (IC50) came out at 2.5 nM in the series on HIV-1 (H9/IIB strain) (setting [2]) and 21 nM in the series with HIV-1 (H9/IIB strain) (setting [3]).

Regarding `CC(C)OC(=O)C(C)(C)N[P@@](=O)(CO[C@H](C)Cn1cnc2c(N)ncnc21)N[C@H](C)c1ccc(Cl)cc1` [Example 35B, isopropyl 2-(((R)-((((R)-1-(6-amino-9H-purin-9-yl)propan-2-yl)oxy)methyl)(((R)-1-(4-chlorophenyl)ethyl)amino)phosphoryl)ami-no)-2-methylpropanoate and isopropyl 2-(((S)-((((R)-1-(6-amino-9H-purin-9-yl)propan-2-yl)oxy)methyl)(((R)-1-(4-chlorophenyl)ethyl)amino)phosphoryl)ami-no)-2-methylpropanoate], the “GI Tract stability (%)” value in series [1] worked out at 70.5%. The IC50 was determined as 2.9 nM in the series with HIV-1 (H9/IIB strain) (setting [2]) and 22 nM in the series on HIV-1 (H9/IIB strain) (setting [3]).

On to `CCCOC(=O)C(C)(C)NP(=O)(CO[C@H](C)Cn1cnc2c(N)ncnc21)N[C@@H](C)c1ccc(OC(F)(F)F)cc1` (stereo partly drawn) [Example 19A, propyl 2-(((R)-((((R)-1-(6-amino-9H-purin-9-yl)propan-2-yl)oxy)methyl)(((S)-1-(4-(trifluoromethoxy)phenyl)ethyl)amino)phos-phoryl)amino)-2-methylpropanoate and propyl 2-(((S)-((((R)-1-(6-amino-9H-purin-9-yl)propan-2-yl)oxy)methyl)(((S)-1-(4-(trifluoromethoxy)phenyl)ethyl)amino)phos-phoryl)amino)-2-methylpropanoate], for which, in series [1], the “GI Tract stability (%)” value was 98.1%. Also, the IC50 in the series with HIV-1 (H9/IIB strain) (setting [2]) turned out to be 2.7 nM; with HIV-1 (H9/IIB strain) (setting [3]), 12 nM.

As for `CCCOC(=O)C(C)(C)NP(=O)(CO[C@H](C)Cn1cnc2c(N)ncnc21)N[C@H](C)c1ccc(OC(F)(F)F)cc1C` (stereo partly drawn) [Example 21B, Propyl 2-(((R)-((((R)-1-(6-amino-9H-purin-9-yl)propan-2-yl)oxy)methyl)(((R)-1-(2-methyl-4-(trifluoromethoxy)phenyl)ethyl)amino)phos-phoryl)amino)-2-methylpropanoate and propyl 2-(((S)-((((R)-1-(6-amino-9H-purin-9-yl)propan-2-yl)oxy)methyl)(((R)-1-(2-methyl-4-(trifluoromethoxy)phenyl)ethyl)amino)phos-phoryl)amino)-2-methylpropanoate], in series [1], the “GI Tract stability (%)” value turned out to be 71.5%. The results for the 50% inhibitory concentration (IC50) in the series with HIV-1 (H9/IIB strain) (setting [2]) and with HIV-1 (H9/IIB strain) (setting [3]) were 1 nM and 5.8 nM, respectively.

With `CCCOC(=O)C(C)(C)NP(=O)(CO[C@H](C)Cn1cnc2c(N)ncnc21)N[C@H](C)c1ccc(OC(F)(F)F)cc1` (single isomer, unassigned) [Example 3B], the “GI Tract stability (%)” value in series [1] amounted to 99.4%. The 50% inhibitory concentration (IC50) was found to be 1.8 nM in the series with HIV-1 (H9/IIB strain) (setting [4]) and 8.6 nM with HIV-1 (H9/IIB strain) (setting [5]).

As for `CCCOC(=O)C(C)(C)N[P@@](=O)(CO[C@H](C)Cn1cnc2c(N)ncnc21)N[C@H](C)c1cccc(F)c1` [Example 9B, propyl 2-(((R)-((((R)-1-(6-amino-9H-purin-9-yl)propan-2-yl)oxy)methyl)(((R)-1-(3-fluorophenyl)ethyl)amino)phosphoryl)ami-no)-2-methylpropanoate and propyl 2-(((S)-((((R)-1-(6-amino-9H-purin-9-yl)propan-2-yl)oxy)methyl)(((R)-1-(3-fluorophenyl)ethyl)amino)phosphoryl)ami-no)-2-methylpropanoate], in series [1], the “GI Tract stability (%)” value turned out to be 90.9%. Further, the IC50 with HIV-1 (H9/IIB strain) (setting [2]) came out at 12 nM; with HIV-1 (H9/IIB strain) (setting [3]), 130 nM.
